According to patent publication US8716350B2, “Compositions and methods for the treatment of somatosensory disorders” (Algynomics Inc., priority 2010, dated 2014):
Entries after “also recorded” stand apart in the source; their conditions may differ. Where two headings read alike, the source gives them in different places.

Columns and labels:
ADRB1 = ADRB1 (Homo sapiens, UniProt P08588); conditions: cells transfected with ADRB1
ADRB3 = target: T1, ADRB3 (Homo sapiens, UniProt P13945); assay type: cell-based; conditions: cells transfected with ADRB3
T1 construct: expressed in transfected cells; host or cells: HEK-293 co-expressing GloSensor-22F

rotarod performance = conditions: for ataxia on the rotarod test (in words): 60 mg/kg, 20-80 min after injection; for ED50 for maximal ataxia: 60 min following drug administration, interval in parentheses
formalin-induced pain = assay: Formalin test (5% formalin, intraplantar), Example 6; assay type: in vivo, CD-1 (ICR:Crl) mice; conditions: 95% confidence interval in parentheses; for ED50: Mus musculus
hind paw formalin test = assay: Hind paw formalin test (2.5% formaldehyde), Example 2; assay type: in vivo, mice; conditions: for late phase, C-fiber mediated responses (paw licking): late/tonic phase, last 50 minutes
[1] = system: mechanical allodynia evoked by spared nerve injury; assay: Spared nerve injury, von Frey test; assay type: in vivo, CD-1 (ICR:Crl) mice; conditions: 60 mg/kg; 7 days postoperatively
Description: All behavioral experiments were performed on naive, adult (6-12 weeks of age) CD-1 (ICR:Crl) mice of both sexes that were bred in-house from breeders obtained from Charles River (Boucherville, QC). All mice were housed with their same-sex littermates (two to four animals per cage) in standard shoebox cages, maintained in a temperature-controlled (20±1° C.) environment (14/10 h light/dark cycle), and fed (Harlan Teklad 8604) and watered ad libitum. The up-down method of Dixon (1965) was used. Mice were placed on a perforated metal floor (with 5-mm diameter holes placed 7 mm apart) within small Plexiglas cubicles (9×5×5 cm high), and a set of eight calibrated von Frey fibers (Stoelting Touch Test Sensory Evaluator Kit #2 to #9; ranging from ≈0.015 g to ≈1.3 g of force) were applied to the plantar surface of the hind paw until the fibers bowed and then held for 3 s. The threshold force required to elicit withdrawal of the paw (median 50% withdrawal) was determined twice on each hind paw (and averaged) for all baseline measurements (except for the spared nerve injury experiments), with sequential measurements separated by at least 20 min. Following drug administration, one measurement per hind paw was taken at the indicated time point. […]

in vivo = conditions: mouse
mechanical thresholds = assay: Von Frey test (acute nociception); assay type: in vivo, CD-1 (ICR:Crl) mice; conditions: 10, 30, 60 mg/kg
Description: (§1) All behavioral experiments were performed on naive, adult (6-12 weeks of age) CD-1 (ICR:Crl) mice of both sexes that were bred in-house from breeders obtained from Charles River (Boucherville, QC). All mice were housed with their same-sex littermates (two to four animals per cage) in standard shoebox cages, maintained in a temperature-controlled (20±1° C.) environment (14/10 h light/dark cycle), and fed (Harlan Teklad 8604) and watered ad libitum. The up-down method of Dixon (1965) was used. Mice were placed on a perforated metal floor (with 5-mm diameter holes placed 7 mm apart) within small Plexiglas cubicles (9×5×5 cm high), and a set of eight calibrated von Frey fibers (Stoelting Touch Test Sensory Evaluator Kit #2 to #9; ranging from ≈0.015 g to ≈1.3 g of force) were applied to the plantar surface of the hind paw until the fibers bowed and then held for 3 s. The threshold force required to elicit withdrawal of the paw (median 50% withdrawal) was determined twice on each hind paw (and averaged) for all baseline measurements (except for the spared nerve injury experiments), with sequential measurements separated by at least 20 min. Following drug administration, one measurement per hind paw was taken at the indicated time point.

thermal thresholds = assay: Radiant heat paw-withdrawal test (acute nociception); assay type: in vivo, CD-1 (ICR:Crl) mice; conditions: high dose; 20 min post-injection
Description: All behavioral experiments were performed on naive, adult (6-12 weeks of age) CD-1 (ICR:Crl) mice of both sexes that were bred in-house from breeders obtained from Charles River (Boucherville, QC). All mice were housed with their same-sex littermates (two to four animals per cage) in standard shoebox cages, maintained in a temperature-controlled (20±1° C.) environment (14/10 h light/dark cycle), and fed (Harlan Teklad 8604) and watered ad libitum. Mice were placed on glass floor within small Plexiglas cubicles as described above, and a focused high-intensity projector lamp beam was directed from below onto the mid-plantar surface of the hind paw (Hargreaves et al., 1988). The commercial device (IITC Model 336) was set to 20% active intensity. Latency to withdraw from the stimulus was measured to the nearest 0.1 s. Baseline measurements consisted of testing both hind paws twice on three separate occasions separated by at least 30 min. Following drug administration both hind paws were only tested once at the indicated time point.

[2] = system: λ-carrageenan thermal and mechanical allodynia; assay: Carrageenan hyperalgesia (radiant heat and von Frey); assay type: in vivo, CD-1 (ICR:Crl) mice
Description: as §1, with “point. Mice were placed on glass floor within small Plexiglas cubicles as described above, and a focused high-intensity projector lamp beam was directed from below onto the mid-plantar surface of the hind paw (Hargreaves et al., 1988). The commercial device (IITC Model 336) was set to 20% active intensity. Latency to withdraw from the stimulus was measured to the nearest 0.1 s. Baseline measurements consisted of testing both hind paws twice on three separate occasions separated by at least 30 min. Following drug administration both hind paws were only tested once at the indicated time point. λ-Carrageenan (2%; 20 mg/ml; Sigma) was suspended by sonication in saline, and injected subcutaneously in a volume of 20 μl into the left plantar hindpaw using a 100 μL1 microsyringe with a 30-gauge needle. Mice were tested for thermal and mechanical sensitivity of both hind paws using the radiant heat paw withdrawal and von Frey tests before and 3 h post carrageenan injection. All drugs were injected immediately following the test for carrageenan hyperalgesia at the 3 h time point, and post-drug measurements were taken at 20, 40 and 60 min.” for “point.”

ADRB2 = target: T2, ADRB2 (Homo sapiens, UniProt P07550); assay: GloSensor cAMP-sensitive luciferase reporter assay, HEK-293 cells transfected with ADRB2; assay type: cell-based
T2 construct: expressed in transfected cells; host or cells: HEK-293 co-expressing GloSensor-22F

[3] = system: cells transfected with only Sport6 vector without inserts; assay: GloSensor cAMP assay, cells transfected with only Sport6 vector without inserts; assay type: cell-based
[4] = S-ALG 517 60, 90 mg/kg, R-ALG 517 60, 90, 120 mg/kg, propranolol 10, 30, 60 mg/kg
[5] = 0-10 min post-injection of formalin
[6] = 10-60 min post-injection of formalin
[7] = 60 mg/kg, up to 60 min post-injection

T1 sequence (P13945 whole entry, species assumed): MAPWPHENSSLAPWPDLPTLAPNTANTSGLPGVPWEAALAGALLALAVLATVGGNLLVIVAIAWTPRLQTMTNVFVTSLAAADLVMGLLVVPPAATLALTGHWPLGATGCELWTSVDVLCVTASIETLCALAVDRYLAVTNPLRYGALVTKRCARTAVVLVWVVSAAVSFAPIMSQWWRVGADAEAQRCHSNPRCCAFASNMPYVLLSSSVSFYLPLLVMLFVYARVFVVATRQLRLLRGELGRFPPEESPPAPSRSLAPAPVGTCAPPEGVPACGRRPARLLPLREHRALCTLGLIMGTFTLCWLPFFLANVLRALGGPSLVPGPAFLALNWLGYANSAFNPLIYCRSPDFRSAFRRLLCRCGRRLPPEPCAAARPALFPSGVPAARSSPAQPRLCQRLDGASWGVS
Sequence of ADRB1 (P08588 whole entry, species assumed): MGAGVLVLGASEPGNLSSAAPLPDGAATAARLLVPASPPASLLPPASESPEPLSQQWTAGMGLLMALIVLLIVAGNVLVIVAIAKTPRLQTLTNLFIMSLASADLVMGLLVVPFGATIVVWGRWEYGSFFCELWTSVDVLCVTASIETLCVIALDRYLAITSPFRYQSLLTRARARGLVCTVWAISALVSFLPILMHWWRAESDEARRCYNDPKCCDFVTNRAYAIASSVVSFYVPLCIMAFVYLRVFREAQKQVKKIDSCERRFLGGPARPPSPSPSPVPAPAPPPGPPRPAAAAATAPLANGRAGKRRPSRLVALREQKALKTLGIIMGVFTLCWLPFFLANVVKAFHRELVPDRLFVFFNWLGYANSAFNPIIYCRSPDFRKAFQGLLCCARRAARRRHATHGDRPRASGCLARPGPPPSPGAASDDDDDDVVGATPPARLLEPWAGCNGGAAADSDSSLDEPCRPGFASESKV

Cc1ccc(OCC(O)C(C)NC(C)C)c2c1CCC2 (centres unmarked) [ICI118,551, 3-(isopropylamino)-1-[(7-methyl-4-indanyl)oxy]butan-2-ol]
blockade of morphine stimulation of cAMP (ADRB1; antagonist 300 nM): partial blockade
blockade of morphine stimulation of cAMP (ADRB3; antagonist 300 nM): no blockade

Cc1ccc(Cl)c(OC[C@@H](O)CNC(C)(C)C)c1 [S-ALG 517, S-tert-butyl[3-(2-chloro-5-methylphenoxy)-2-hydroxypropyl]amine]
ataxia on the rotarod test (in words) (rotarod performance): only slight and possibly not even significant ataxia
ED50 for maximal ataxia (rotarod performance): 74 mg/kg
ataxia / sedation on rotarod over the doses tested (in words) (rotarod performance; [4]): produce sedation at much lower doses
half-maximal analgesic dose (ED50), Early Phase (formalin-induced pain; [5]): not calculable
half-maximal analgesic dose (ED50), Late Phase (formalin-induced pain; [6]): not calculable
responses to the hind paw formalin test (hind paw formalin test; 3 mg/kg): without effect
responses to the hind paw formalin test (hind paw formalin test; 10 mg/kg): without effect

Cc1ccc(Cl)c(OC[C@H](O)CNC(C)(C)C)c1 [R-ALG 517, R-tert-butyl[3-(2-chloro-5-methylphenoxy)-2-hydroxypropyl]amine]
reversal of mechanical allodynia evoked by spared nerve injury [1]: reversed
ataxia / sedation on rotarod over the doses tested (in words) (rotarod performance; mouse, in vivo): does not produce significant ataxia
ED50 at 60 min (in vivo): 166 mg/kg
ED50 (formalin-induced pain; 0-10 min post-injection of formalin, read-out: half-maximal analgesic dose (ED50), Early Phase): 46 mg/kg
ED50 (formalin-induced pain; 10-60 min post-injection of formalin, read-out: half-maximal analgesic dose (ED50), Late Phase): 26.6 mg/kg
mechanical thresholds on the von Frey test (mechanical thresholds): no effect
late phase, C-fiber mediated responses (paw licking) (hind paw formalin test; 10 mg/kg): reduced
early, A-delta mediated phase responses (paw licking) (hind paw formalin test; early/acute phase, first 5 min): not altered
thermal thresholds on the radiant heat test (thermal thresholds): increased thermal thresholds
reversal of thermal hyperalgesia ([2]; 10 mg/kg): transient reversal
reversal of mechanical hyperalgesia ([2]; 30 mg/kg): transient reversal
reversal of thermal hyperalgesia ([2]; 30 mg/kg): transient reversal
reversal of mechanical hyperalgesia [2, 7]: complete and sustained
reversal of thermal hyperalgesia [2, 7]: complete and sustained

CC(C)NCC(O)COc1cccc2ccccc12 (centres unmarked) [S-Propranolol]
half-maximal analgesic dose (ED50), Early Phase (formalin-induced pain; [5]): 35 mg/kg
half-maximal analgesic dose (ED50), Late Phase (formalin-induced pain; [6]): 25.46 mg/kg

CC(C)NCC(O)COc1cccc2ccccc12 (centres unmarked) [propranolol]
ataxia on the rotarod test (in words) (rotarod performance): fall off the rotarod very rapidly
ED50 for maximal ataxia (rotarod performance): 4.76 mg/kg
ataxia / sedation on rotarod over the doses tested (in words) (rotarod performance; [4]): produce sedation at much lower doses
half-maximal analgesic dose (ED50), Early Phase (formalin-induced pain; 0-10 min post-injection of formalin, listed as racemic propranolol): 33 mg/kg
half-maximal analgesic dose (ED50), Late Phase (formalin-induced pain; 10-60 min post-injection of formalin, listed as racemic propranolol): 21.3 mg/kg
late phase, C-fiber mediated responses (paw licking) (hind paw formalin test; 10 mg/kg): reduced

dynorphin A
agonist stimulation of cAMP production (ADRB2): showed agonistic properties

CC(C)NC[C@@H](O)COc1cccc2ccccc12 [R-propranolol]
half-maximal analgesic dose (ED50), Early Phase (formalin-induced pain; [5]): not calculable
half-maximal analgesic dose (ED50), Late Phase (formalin-induced pain; [6]): not calculable

CN1CC[C@]23c4c5ccc(O)c4O[C@H]2[C@@H](O)C=C[C@H]3[C@H]1C5 [morphine]
intracellular cAMP accumulation (ADRB1): dose-dependent increases
cAMP response [3]: did not evoke responses
ADRB2 agonist potency in comparison with other agonists (in words) (ADRB2): most potent ADRB2 agonist
agonist potency at ADRB2 as compared to ADRB1 and ADRB3 (ADRB2): 500-1000 times
agonist stimulation of cAMP production (ADRB2): stimulated cAMP production; also recorded: dose-dependent increases
intrinsic activity at ADRB2 as compared to ADRB1 and ADRB3 (ADRB2): about 10 times
intracellular cAMP accumulation (ADRB3): dose-dependent increases
